Earlier results in US10821075B1, “Compositions for topical application of a medicaments onto a mammalian body surface” (priority 2017, dated 2020).

Conditions: weak acid drug

pKa: 4.30
Compound: CC(C(=O)O)c1cccc(C(=O)c2ccccc2)c1 (stereo not shown) [ketoprofen]
